Source: patent publication US7127357B1, “Crystal structure of WW domains and methods of use thereof” (The Salk Institute for Biological Studies, priority 2000, dated 2006)
Non-standard residues stand in square brackets, D forms with d. Residues, ends and D or L forms follow the SMILES beside them. *: point of attachment. X1 = CN(C)c1ccc2c(c1)Oc1cc(N(C)C)ccc1C21OC(=O)c2cc(NC(=S)*)ccc21; pT = C[C@@H](OP(=O)(O)O)[C@H](N)C(=O)O; pS = N[C@@H](COP(=O)(O)O)C(=O)O

Assays:
Pin1 PPIase domain = molecular target: T1, Pin1 PPIase domain (Homo sapiens, UniProt Q13526); assay: Fluorescence anisotropy binding of rhodamine-labeled peptides to isolated Pin1 PPIase domain
T1 construct: the PPIase domain includes residues 50–163 of Pin1
Protocol: Protein purification and crystallography. His8-tagged Pin1 was expressed and purified by Ni^+2-chelation chromatography, the histidine tag was removed by thrombin digestion, and the protein purified as described in Ranganathan et al., Cell 89:875–886, 1997. All site-directed mutants were constructed using the QuikChange (Stratagene) protocol and purified like wild type Pin1. Crystals of the Pin1-YpSPTpSPS complex were grown in hanging drops at 4° C. by mixing 1.0 μl of the Pin1-peptide complex with 1.0 μl of a reservoir solution containing 100 mM MOPSO-Na^+ (pH 7.0), 28% (v/v) PEG 8000, 2 mM DTT, stabilized in 100 mM MOPSO-Na^+ (pH 7.0), 25% (v/v) PEG 8000, 20% (v/v) glycerol, 1 mM DTT, and rapidly frozen in a 100 K stream of nitrogen gas. A native data set extending to 1.84 Å resolution was collected at the Stanford Synchrotron Radiation Laboratory, beamline 9-1 (λ=0.98 Å). Data were processed with DENZO and scaled with […] (Otwinowski, Z., Minor, W. Meth. Enzymol. 276:307–326, 1997). The crystals contain one Pin1-peptide complex per asymmetric unit and belong to space group P212121 (a=35.27 Å, b=43.90 Å, c=124.66 Å, α=β=γ=90°). The final data set with an overall R merge of 6.2% (R merge=33.7% in the highest resolution shell) is 97.3% complete (98.2% in the highest resolution shell) for the resolution range of 62.02 Å to 1.84 Å. The structure of the Pin1-YpSPTpSPS repeat complex was solved by molecular replacement with AMORE (Navaza, J. Acta Crystallogr. A 50:157–163, 1994) using the Pin1 monomer as a starting model (Ranganathan et al., Cell 89:875–886, 1997). The resulting model was then positionally refined against all the data between 62.02 Å and 1.84 Å using the default bulk solvent model in CNS with maximum likelihood targets (Brunger et al., Acta Crystallogr. D 54:905–921, 1998). After refining the rebuilt model, water molecules were added automatically using CNS and edited manually in O. The final positional refinement converged to a crystallographic R factor of 24% (R free=27%) for all data (17107 reflections) between 62.02 Å and 1.84 Å. This model consists of residues 1 to 38 and 51 to 163 of human Pin1, the entire phosphopeptide, and 151 water molecules. Model quality was checked with PROCHECK (Laskowski et al., J. Appl. Crystallogr. 26:283–291, 1993). A total of 91.7% of the residues are in the most favored regions of the Ramachandran plot, 6.8% in the additional allowed region, and 0.8% in the generously allowed region. Glu-5 borders the generously allowed region.
Binding Analysis. […] These peptides were derived from proteins previously shown to interact with Pin1. While the set of peptides examined is limited, a consensus emerges from comparison of the highest affinity interactions. Lyophilized peptides were dissolved in 25 mM HEPES-Na^+ (pH 7.5), 100 mM NaCl, 1 mM DTT and stored for short periods of time at −20° C. […] Fluorescence data were collected on a PTI Alphascan spectrofluorimeter (Photon Technology Instruments, Santa Clara, Calif.). Dissociation equilibrium constants for Pin1-peptide complexes were determined by measuring the change in fluorescence anisotropy of a set of peptide solutions at constant concentration of peptide each of which contained varied concentrations of Pin1 using the procedure described previously (Vinson et al., Biochemistry 37:10871–10880, 1998). The core binding element determined from this group of peptides is PXpSP, where X cannot be Gly. […]

Pin1 = molecular target: T2, Pin1 (Homo sapiens, UniProt Q13526); assay: Fluorescence anisotropy binding of rhodamine-labeled peptides to full length Pin1; conditions: errors are deviations from theoretical binding isotherms
T2 construct: His8 (cleaved yes); made in house; host or cells: E. coli
Protocol: (§1) Protein purification and crystallography. His8-tagged Pin1 was expressed and purified by Ni^+2-chelation chromatography, the histidine tag was removed by thrombin digestion, and the protein purified as described in Ranganathan et al., Cell 89:875–886, 1997. All site-directed mutants were constructed using the QuikChange (Stratagene) protocol and purified like wild type Pin1. Crystals of the Pin1-YpSPTpSPS complex were grown in hanging drops at 4° C. by mixing 1.0 μl of the Pin1-peptide complex with 1.0 μl of a reservoir solution containing 100 mM MOPSO-Na^+ (pH 7.0), 28% (v/v) PEG 8000, 2 mM DTT, stabilized in 100 mM MOPSO-Na^+ (pH 7.0), 25% (v/v) PEG 8000, 20% (v/v) glycerol, 1 mM DTT, and rapidly frozen in a 100 K stream of nitrogen gas. […]
(§2) Binding Analysis. […] Fluorescence data were collected on a PTI Alphascan spectrofluorimeter (Photon Technology Instruments, Santa Clara, Calif.). Dissociation equilibrium constants for Pin1-peptide complexes were determined by measuring the change in fluorescence anisotropy of a set of peptide solutions at constant concentration of peptide each of which contained varied concentrations of Pin1 using the procedure described previously (Vinson et al., Biochemistry 37:10871–10880, 1998). The core binding element determined from this group of peptides is PXpSP, where X cannot be Gly. […]

Pin1 WW domain = molecular target: T3, Pin1 WW domain (Homo sapiens, UniProt Q13526); assay: Fluorescence anisotropy binding of rhodamine-labeled peptides to isolated Pin1 WW domain
T3 construct: The WW domain of Pin1 includes residues 1 to 39
Protocol: as §1, §2

T1 sequence (Q13526 50-163): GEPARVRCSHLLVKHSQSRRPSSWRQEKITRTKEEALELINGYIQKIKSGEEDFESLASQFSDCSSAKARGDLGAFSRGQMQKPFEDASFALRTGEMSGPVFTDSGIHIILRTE
T3 sequence (Q13526 1-39 limits assumed): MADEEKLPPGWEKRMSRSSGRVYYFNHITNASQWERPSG
T2 sequence (Q13526 whole entry): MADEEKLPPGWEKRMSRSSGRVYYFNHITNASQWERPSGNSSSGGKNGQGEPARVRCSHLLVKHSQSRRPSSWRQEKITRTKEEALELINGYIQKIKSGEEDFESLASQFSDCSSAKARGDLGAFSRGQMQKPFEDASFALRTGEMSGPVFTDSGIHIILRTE

| Compound | Dissociation equilibrium constants for Pin1-peptide complexes, PPIase (Pin1 PPIase domain) | Dissociation equilibrium constants for Pin1-peptide complexes, Pin1 (Pin1) | Dissociation equilibrium constants for Pin1-peptide complexes, WW (Pin1 WW domain) |
| --- | --- | --- | --- |
| CC(C)[C@H](NC(=O)[C@@H]1CCCN1C(=O)[C@@H](NC(=O)[C@H](CCCNC(=N)N)NC(=O)[C@@H]1CCCN1C(=O)[C@@H](NC(=S)Nc1ccc2c(c1)C(=O)OC21c2ccc(N(C)C)cc2Oc2cc(N(C)C)ccc21)C(C)C)[C@@H](C)OP(=O)(O)O)C(=O)O [VPRpTPV (Cdc25c-T48), VPRpTPV] (X1-VPR[pT]PV-OH) | n.b. | – | – |
| C[C@H](NC(=O)[C@@H]1CCCN1C(=O)[C@@H]1CCCN1C(=S)Nc1ccc2c(c1)C(=O)OC21c2ccc(N(C)C)cc2Oc2cc(N(C)C)ccc21)C(=O)N[C@H](C(=O)N1CCC[C@H]1C(=O)N1CCC[C@H]1C(=O)O)[C@@H](C)OP(=O)(O)O [PPApTPP (Myt1-T412), PPApTPP] (X1-PPA[pT]PP-OH) | n.b. | – | – |
| YSPTSPS [YSPTSPS (CTD), unphosphorylated heptad repeat of the C-terminal domain of RNA Polymerase II, rhodamine-labeled] | n.b. | n.b. | n.b. |
| C[C@@H](O)[C@H](NC(=O)[C@H](CO)NC(=S)Nc1ccc2c(c1)C(=O)OC21c2ccc(N(C)C)cc2Oc2cc(N(C)C)ccc21)C(=O)N[C@@H](CO)C(=O)N[C@H](C(=O)N1CCC[C@H]1C(=O)N[C@@H](CCCNC(=N)N)C(=O)O)[C@@H](C)OP(=O)(O)O [STSpTPR (Myt1-T455), STSpTPR] (X1-STS[pT]PR-OH) | n.b. | – | – |
| CN(C)c1ccc2c(c1)Oc1cc(N(C)C)ccc1C21OC(=O)c2cc(NC(=S)N3CCC[C@H]3C(=O)N3CCC[C@H]3C(=O)NCC(=O)N[C@@H](COP(=O)(O)O)C(=O)N3CCC[C@H]3C(=O)N3CCC[C@H]3C(=O)O)ccc21 [PPGpSPP (Myt1-S416), PPGpSPP] (X1-PPG[pS]PP-OH) | n.b. | – | – |
